Values joined by “and” are separate entries in the source; they are usually repeats but may differ in a detail not shown here. Equal values may be shown once. Toxic doses and inconclusive results are not listed. Rule for the calls: active = survival T/C of 150% or more; inactive = T/C below 125% in these data.
System: CD2F1 mice, L1210 leukemia ip, survival T/C
Test: NCI In Vivo Anticancer Drug Screen. Data for tumor model L1210 Leukemia (intraperitoneal) in CD2F1 (CDF1) mice
Conditions: higher = longer survival
Summary of the method: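 Ratio T/C, where T is the treated-group value and C the vehicle-dosed control value, from mice implanted with a transplantable tumor.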

[1] = endpoint: mean survival time, dose: 100.0 mg/kg/injection, schedule: Q01DX001 (ip), vehicle: saline with Tween-80
[2] = endpoint: mean survival time, dose: 200.0 mg/kg/injection, schedule: Q01DX001 (ip), vehicle: saline with Tween-80
[3] = endpoint: mean survival time, dose: 400.0 mg/kg/injection, schedule: Q01DX001 (ip), vehicle: saline with Tween-80
[4] = endpoint: mean survival time, dose: 12.5 mg/kg/injection, schedule: Q01DX005 (ip), vehicle: distilled water + Tween-80
[5] = endpoint: mean survival time, dose: 25.0 mg/kg/injection, schedule: Q01DX005 (ip), vehicle: distilled water + Tween-80
[6] = endpoint: mean survival time, dose: 50.0 mg/kg/injection, schedule: Q01DX005 (ip), vehicle: distilled water + Tween-80
[7] = endpoint: mean survival time, dose: 100.0 mg/kg/injection, schedule: Q01DX005 (ip), vehicle: distilled water + Tween-80
[8] = endpoint: mean survival time, dose: 100.0 mg/kg/injection, schedule: Q01DX001 (ip), vehicle: saline
[9] = endpoint: mean survival time, dose: 200.0 mg/kg/injection, schedule: Q01DX001 (ip), vehicle: saline
[10] = endpoint: mean survival time, dose: 100.0 mg/kg/injection, schedule: Q04DX003 (ip), vehicle: saline with Tween-80
[11] = endpoint: mean survival time, dose: 200.0 mg/kg/injection, schedule: Q04DX003 (ip), vehicle: saline with Tween-80
[12] = endpoint: mean survival time, dose: 400.0 mg/kg/injection, schedule: Q04DX003 (ip), vehicle: saline with Tween-80
[13] = endpoint: mean survival time, dose: 100.0 mg/kg/injection, schedule: Q01DX009 (ip), vehicle: saline with Tween-80
[14] = endpoint: mean survival time, dose: 200.0 mg/kg/injection, schedule: Q01DX009 (ip), vehicle: saline with Tween-80
[15] = endpoint: mean survival time, dose: 400.0 mg/kg/injection, schedule: Q01DX009 (ip), vehicle: saline with Tween-80
[16] = endpoint: mean survival time, dose: 200.0 mg/kg/injection, schedule: Q01DX005 (ip), vehicle: distilled water + Tween-80

Measured: T/C

O=C(COc1cccc(Cl)c1)NCc1ccccc1NC(=O)Nc1cccc(S(=O)(=O)F)c1
inactive: [1] 88 % of control | [2] 89 % of control | [3] 94 % of control

Nc1ncnc2c1ncn2C1OC(C(N)C(=O)O)C(O)C1O (configuration not stated)
inactive: endpoint: mean survival time, dose: 6.25 mg/kg/injection, schedule: Q01DX005 (ip), vehicle: distilled water + Tween-80 101 % of control | [4] 96 % of control | [5] 98 % of control | [6] 98 % of control | [7] 103 % of control

CCS(=O)(=O)C1(S(=O)(=O)CC)CCCCC1
inactive: [8] 102 % of control | [9] 102 % of control | endpoint: mean survival time, dose: 400.0 mg/kg/injection, schedule: Q01DX001 (ip), vehicle: saline 102 % of control

COC(=O)NC(N)=Nc1ccccc1
inactive: endpoint: mean survival time, dose: 12.5 mg/kg/injection, schedule: Q01DX009 (ip), vehicle: saline with Tween-80 96 % of control | endpoint: mean survival time, dose: 25.0 mg/kg/injection, schedule: Q01DX009 (ip), vehicle: saline with Tween-80 87 % of control

O=C(O)C1CCN1C1CCCCC1 (configuration not stated)
inactive: endpoint: mean survival time, dose: 100.0 mg/kg/injection, schedule: Q01DX009 (ip), vehicle: saline 98 % of control | [10] 103 % of control | endpoint: mean survival time, dose: 200.0 mg/kg/injection, schedule: Q01DX009 (ip), vehicle: saline 100 % of control | [11] 103 % of control | endpoint: mean survival time, dose: 400.0 mg/kg/injection, schedule: Q01DX009 (ip), vehicle: saline 98 % of control | [12] 100 % of control

Nc1ccccc1CCc1ccccc1N
inactive: [10] 100 % of control | [11] 102 % of control | [12] 93 % of control

COC(=O)C(C)NC(=O)OCc1ccccc1 (configuration not stated)
inactive: [10] 96 % of control | [11] 98 % of control | [12] 101 % of control

CC(=O)OCCC/C(=C\c1ccc(Cl)c(Cl)c1)[N+](=O)[O-]
inactive: [8] 100 % of control

CCOC(=O)/N=[N+](\[O-])c1ccccc1
inactive: endpoint: median survival time, dose: 3.12 mg/kg/injection, schedule: Q01DX009 (ip), vehicle: saline with Tween-80 109 % of control | endpoint: median survival time, dose: 6.25 mg/kg/injection, schedule: Q01DX009 (ip), vehicle: saline with Tween-80 112 % of control | endpoint: median survival time, dose: 12.5 mg/kg/injection, schedule: Q01DX009 (ip), vehicle: saline with Tween-80 105 % of control

Cc1ccc(/C=C(/F)OC(C)(C)C)cc1
inactive: endpoint: mean survival time, dose: 50.0 mg/kg/injection, schedule: Q01DX001 (ip), vehicle: saline with Tween-80 97 % of control | [1] 101 % of control | [2] 100 % of control

Cc1ccc(C(=O)C2CC(Br)C(Br)CC2C(=O)c2ccc(C)cc2)cc1 (configuration not stated)
inactive: [13] 90 % of control | [10] 100 % of control | [14] 86 % of control | [11] 100 % of control | [15] 86 % of control | [12] 97 % of control

N=C(N)SCCc1ccccc1
inactive: endpoint: mean survival time, dose: 12.5 mg/kg/injection, schedule: Q01DX001 (ip), vehicle: saline 95 % of control | endpoint: mean survival time, dose: 25.0 mg/kg/injection, schedule: Q01DX001 (ip), vehicle: saline 100 % of control | endpoint: mean survival time, dose: 50.0 mg/kg/injection, schedule: Q01DX001 (ip), vehicle: saline 103 % of control

COC(=O)CSc1n[nH]c(=O)[nH]c1=O
inactive: [4] 97 % of control | [5] 100 % of control | [6] 103 % of control | [7] 94 % of control | [16] 92 % of control

CCN1/C(=C/C=C/C=C\C=C\c2sc3ccc4ccccc4c3[n+]2CC)Sc2ccc3ccccc3c21
inactive: endpoint: mean survival time, dose: 1.25 mg/kg/injection, schedule: Q01DX009 (ip), vehicle: saline with Tween-80 116 % of control and 117 % of control and 112 % of control | endpoint: mean survival time, dose: 2.5 mg/kg/injection, schedule: Q01DX009 (ip), vehicle: saline with Tween-80 116 % of control and 119 % of control and 120 % of control | endpoint: mean survival time, dose: 5.0 mg/kg/injection, schedule: Q01DX009 (ip), vehicle: saline with Tween-80 114 % of control | endpoint: mean survival time, dose: 10.0 mg/kg/injection, schedule: Q01DX009 (ip), vehicle: saline with Tween-80 117 % of control and 118 % of control | endpoint: mean survival time, dose: 20.0 mg/kg/injection, schedule: Q01DX009 (ip), vehicle: saline with Tween-80 114 % of control and 116 % of control | endpoint: mean survival time, dose: 40.0 mg/kg/injection, schedule: Q01DX009 (ip), vehicle: saline with Tween-80 101 % of control and 112 % of control

Nc1cc2c(nnn2C2OC(CO)C(O)C2O)c(=O)[nH]1 (configuration not stated)
inactive: [4] 98 % of control | [5] 98 % of control | [6] 102 % of control | [7] 98 % of control | [16] 88 % of control

Cc1cc(=O)n(C)c2ccccc12
inactive: endpoint: mean survival time, dose: 50.0 mg/kg/injection, schedule: Q04DX003 (ip), vehicle: saline with Tween-80 95 % of control | [10] 103 % of control | [11] 97 % of control

CSc1nc(NC2OCC(O)C(O)C2O)cc(=O)n1C (configuration not stated)
inactive: endpoint: median survival time, dose: 12.5 mg/kg/injection, schedule: Q01DX005 (ip), vehicle: saline 98 % of control | endpoint: median survival time, dose: 25.0 mg/kg/injection, schedule: Q01DX005 (ip), vehicle: saline 102 % of control | endpoint: median survival time, dose: 50.0 mg/kg/injection, schedule: Q01DX005 (ip), vehicle: saline 102 % of control | endpoint: median survival time, dose: 100.0 mg/kg/injection, schedule: Q01DX005 (ip), vehicle: saline 105 % of control | endpoint: median survival time, dose: 200.0 mg/kg/injection, schedule: Q01DX005 (ip), vehicle: saline 100 % of control

CCCCCCC(C)=O
inactive: [10] 98 % of control | [11] 96 % of control | [12] 91 % of control

Nc1ccc2c(c1)C(=O)c1ccc(N)cc1C2=O
inactive: [1] 88 % of control | [2] 96 % of control | [3] 88 % of control

CC(=O)Oc1ccc(CC2N=C(c3ccccc3)OC2=O)cc1 (configuration not stated)
inactive: endpoint: mean survival time, dose: 50.0 mg/kg/injection, schedule: Q01DX009 (ip), vehicle: saline with Tween-80 87 % of control | [13] 91 % of control

CC(C)c1cc2cc(Br)ccc2o1
inactive: [8] 103 % of control | [9] 95 % of control

COc1ccc(S(=O)(=O)F)cc1NC(=O)COc1cccc(Cl)c1
inactive: [10] 96 % of control | [11] 97 % of control | [12] 103 % of control

COC(=O)C1C(C(=O)OC)C2C3C4C1C1C2C1C43 (configuration not stated)
inactive: [10] 102 % of control | [11] 102 % of control | [12] 104 % of control

C[N+]1(C)CCS(=O)(=O)CC1
inactive: [10] 94 % of control | [11] 95 % of control | [12] 86 % of control

O=C(O)c1cccc2ccc(Br)cc12
inactive: endpoint: median survival time, dose: 50.0 mg/kg/injection, schedule: Q04DX002 (ip), vehicle: saline with Tween-80 100 % of control | endpoint: median survival time, dose: 100.0 mg/kg/injection, schedule: Q04DX002 (ip), vehicle: saline with Tween-80 100 % of control | endpoint: median survival time, dose: 200.0 mg/kg/injection, schedule: Q04DX002 (ip), vehicle: saline with Tween-80 111 % of control

O=[N+]([O-])c1ccc(Sc2ccc([N+](=O)[O-])cc2)cc1
inactive: [10] 88 % of control | [11] 92 % of control

Clc1ccc2c(c1)Cc1cc(N(CCBr)CCBr)ccc1-2
inactive: [13] 104 % of control | [14] 106 % of control | [15] 110 % of control

Cc1cc(N(CCOS(C)(=O)=O)CCOS(C)(=O)=O)ccc1N=O
inactive: endpoint: mean survival time, dose: 0.25 mg/kg/injection, schedule: Q01DX015 (ip), vehicle: saline 119 % of control | endpoint: mean survival time, dose: 0.5 mg/kg/injection, schedule: Q01DX015 (ip), vehicle: saline 121 % of control | endpoint: mean survival time, dose: 1.0 mg/kg/injection, schedule: Q01DX010 (ip), vehicle: saline 101 % of control | endpoint: mean survival time, dose: 1.0 mg/kg/injection, schedule: Q01DX015 (ip), vehicle: saline 116 % of control | endpoint: mean survival time, dose: 2.0 mg/kg/injection, schedule: Q01DX015 (ip), vehicle: saline 97 % of control

Reference: PubChem BioAssay AID256 (DTP/NCI, 2004)
